Measured values taken from patent US20240199572A1, “COMPOUNDS, COMPOSITIONS, AND METHODS FOR TREATING TYPE 2 DIABETES AND DEMENTIA” (THE BOARD OF TRUSTEES OF THE UNIVERSITY OF ILLINOIS, priority 2021, published 2024).

Columns and labels:
ABCA1 mRNA = ABCA1 mRNA - HepG2 (qRT-PCR); format: cell-based, human; conditions: Homo sapiens; ABCA1 mRNA-HepG2 assay (Table 7)
Source text: qRT-PCR. For cell samples, treated cells were lysed with RLT plus lysis buffer (Qiagen). RNA was isolated with Qiagen RNEASY® Plus columns per manufacturer instructions, then reverse-transcribed to cDNA using […]® III Reverse Transcriptase (200 U/μL, Invitrogen) per supplier protocol. qPCR experiments were either performed with TAQMAN® gene expression master mix (Invitrogen) on a StepOne™ qPCR instrument or with […]® SYBR® Green SuperMix (Quanta Biosciences) on CFX Connect™ Real-Time PCR Detection System (BioRad), with fold-change quantified by ΔΔCt. For animal samples, 100 mg tissue was homogenized in 1 mL acid-guanidinium-phenol based reagent sold under the tradename TRIZOL® (Ambion), mixed vigorously in chloroform, and separated by centrifugation. Aqueous layer containing RNA was added to Qiagen RNEASY® Plus column; remaining stops were as described above for cell lysates.

ABCA1 = ABCA1 firefly reporter assay in CCF-001 cells; format: cell-based; conditions: ABCA1 firefly reporter assay in CCF-001 cells (Table 8)

Row | Structure (SMILES) | EC50 (ABCA1 mRNA) | EC50 (ABCA1)
1 | CCOc1ccc(N(C)S(=O)(=O)c2ccsc2C(=O)Nc2cccc(C(=O)CC)c2)cc1 [CL1-62, 3-(N-(4-ethoxyphenyl)-N-methylsulfamoyl)-N-(3-propionylphenyl)thiophene-2-carboxamide] | > 5000 nM | –
2 | CCOc1ccc(N(C)S(=O)(=O)c2ccsc2C(=O)Nc2cccc(C(=O)OC)c2)cc1 [CL1-87, Methyl 3-(3-(N-(4-ethoxyphenyl)-N-methylsulfamoyl)thiophene-2-carboxamido) benzoate] | > 5000 nM | 3970 nM
3 | CCOc1ccc(N(C)S(=O)(=O)c2ccsc2C(=O)Nc2cccc(C(=O)OC(C)C)c2)cc1 [CL1-88, Isopropyl 3-(3-(N-(4-ethoxyphenyl)-N-methylsulfamoyl)thiophene-2-carboxamido) benzoate] | 4500 nM | –
4 | CCOC(=O)c1cccc(NC(=O)c2sccc2S(=O)(=O)N(C)c2cccc(OCC)c2)c1 [CL2-1, Ethyl 3-(3-(N-(3-ethoxyphenyl)-N-methylsulfamoyl)thiophene-2-carboxamido)benzoate] | > 5000 nM | 4640 nM
5 | CCCOc1ccc(N(C)S(=O)(=O)c2ccsc2C(=O)Nc2cccc(C(=O)OCC)c2)cc1 [CL2-16, Ethyl 3-(3-(N-methyl-N-(4-propoxyphenyl)sulfamoyl)thiophene-2-carboxamido) benzoate] | 3500 nM | 2360 nM
6 | CCOC(=O)c1cccc(NC(=O)c2sccc2S(=O)(=O)N(C)c2ccc(OCC)c(OCC)c2)c1 [CL2-43, Ethyl 3-(3-(N-(3,4-diethoxyphenyl)-N-methylsulfamoyl)thiophene-2-carboxamido)benzoate] | 2800 nM | –
7 | CCOc1ccc(N(C)S(=O)(=O)c2cc(Cl)sc2C(=O)Nc2cccc(S(C)(=O)=O)c2)cc1OCC [CL2-63, 5-Chloro-3-(N-(3,4-diethoxyphenyl)-N-methylsulfamoyl)-N-(3-(methylsulfonyl)phenyl)thiophene-2-carboxamide] | 4800 nM | 12600 nM
8 | CCOc1ccc(N(C)S(=O)(=O)c2cc(Cl)sc2C(=O)Nc2cccc(C(=O)CC)c2)cc1OCC [CL2-64, 5-Chloro-3-(N-(3,4-diethoxyphenyl)-N-methylsulfamoyl)-N-(3-propionylphenyl)thiophene-2-carboxamide] | > 5000 nM | –
9 | CCOC(=O)c1cccc(NC(=O)c2sc(Cl)cc2S(=O)(=O)N(C)c2ccc(OCC)c(OC)c2)c1 [CL2-85, Ethyl 3-(5-chloro-3-(N-(4-ethoxy-3-methoxyphenyl)-N-methylsulfamoyl)thiophene-2-carboxamido)benzoate] | 1100 nM | 190 nM
10 | CCOC(=O)c1cccc(NC(=O)c2sc(Cl)cc2S(=O)(=O)N(C)c2ccc(OCC)cc2F)c1 [CL2-143, Ethyl 3-(5-chloro-3-(N-(4-ethoxy-2-fluorophenyl)-N-methylsulfamoyl)thiophene-2-carboxamido)benzoate] | 3500 nM | 1620 nM
11 | CCOC(=O)c1cccc(NC(=O)c2sc(Cl)cc2S(=O)(=O)N(C)c2ccc(OCC)nc2)c1 [CL2-159, Ethyl 3-(5-chloro-3-(N-(6-ethoxypyxidin-3-yl)-N-methylsulfamoyl)thiophene-2-carboxamido)benzoate] | > 5000 nM | 5390 nM
12 | CCOc1ccc(N(C)S(=O)(=O)c2cc(Cl)sc2C(=O)Nc2cccc(C(=O)OCCOC)c2)cc1OCC [CL2-167, 2-Methoxyethyl 3-(5-chloro-3-(N-(3,4-diethoxyphenyl)-N-methylsulfamoyl)thiophene-2-carboxamido) benzoate] | 5000 nM | 2190 nM
13 | CCOc1ccc(N(C)S(=O)(=O)c2cc(Cl)sc2C(=O)Nc2cccc(C(=O)OCCOCCOC)c2)cc1OCC [CL2-168, 2-(2-Methoxyethoxy) ethyl 3-(5-chloro-3-(N-(3,4-diethoxyphenyl)-N-methylsulfamoyl)thiophene-2-carboxamido) benzoate] | 3600 nM | 1360 nM
14 | CCOC(=O)c1cccc(NC(=O)c2sc(Cl)cc2S(=O)(=O)N(C)c2ccc(N(C)C)cc2)c1 [CL2-181, Ethyl 3-(5-chloro-3-(N-(4-(dimethylamino)phenyl)-N-methylsulfamoyl)thiophene-2-carboxamido)benzoate] | 5000 nM | 4990 nM
15 | CCOC(=O)c1cccc(NC(=O)c2sc(Cl)cc2S(=O)(=O)N(C)c2cnc(OCC)c(F)c2)c1 [CL2-184, Ethyl 3-(5-chloro-3-(N-(6-ethoxy-5-fluoropyridin-3-yl)-N-methylsulfamoyl)thiophene-2-carboxamido)benzoate] | 4500 nM | 4950 nM
16 | CCOC(=O)c1cc(Cl)cc(NC(=O)c2sc(Cl)cc2S(=O)(=O)N(C)c2ccc(OCC)c(OCC)c2)c1 [CL2-187, Ethyl 3-chloro-5-(5-chloro-3-(N-(3,4-diethoxyphenyl)-N-methylsulfamoyl)thiophene-2-carboxamido) benzoate] | 810 nM | 247 nM
17 | CCOC(=O)c1cc(N)cc(NC(=O)c2sc(Cl)cc2S(=O)(=O)N(C)c2ccc(OCC)c(OCC)c2)c1 [CL2-191, Ethyl 3-amino-5-(5-chloro-3-(N-(3,4-diethoxyphenyl)-N-methylsulfamoyl)thiophene-2-carboxamido)benzoate] | > 5000 nM | 8420 nM
18 | CCOC(=O)c1cccc(NC(=O)c2sc(Cl)cc2S(=O)(=O)N(C)c2ccc(N3CCNCC3)cc2)c1 [CL2-200, Ethyl 3-(5-chloro-3-(N-methyl-N-(4-(piperazin-1-yl)phenyl)sulfamoyl)thiophene-2-carboxamido)benzoate] | 3700 nM | –
19 | CCOC(=O)c1cccc(NC(=O)c2sc(Cl)cc2S(=O)(=O)N(C)c2ccc(OCC)c(OCC)c2)n1 [CL3-2, Ethyl 6-(5-chloro-3-(N-(3,4-diethoxyphenyl)-N-methylsulfamoyl)thiophene-2-carboxamido)picolinate] | > 5000 nM | –
20 | CCOC(=O)c1cc(Cl)cc(NC(=O)c2sc(Cl)cc2S(=O)(=O)N(C)c2ccc(OC)c(OC)c2)c1 [CL3-9, Ethyl 3-chloro-5-(5-chloro-3-(N-(3,4-dimethoxyphenyl)-N-methylsulfamoyl)thiophene-2-carboxamido)benzoate] | 1200 nM | 530 nM
21 | CCOc1ccc(N(C)S(=O)(=O)c2cc(Cl)sc2C(=O)Nc2cc(Cl)cc(C(=O)OC)c2)cc1OC [CL3-10, Methyl 3-chloro-5-(5-chloro-3-(N-(4-ethoxy-3-methoxyphenyl)-N-methylsulfamoyl)thiophene-2-carboxamido)benzoate] | 1100 nM | 339 nM
22 | CCOc1ccc(N(C)S(=O)(=O)c2cc(Cl)sc2C(=O)Nc2cc(Cl)cc(C(=O)OCCOC)c2)cc1OC [CL3-11, 2-Methoxyethyl 3-chloro-5-(5-chloro-3-(N-(4-ethoxy-3-methoxyphenyl)-N-methylsulfamoyl)thiophene-2-carboxamido)benzoate] | 420 nM | 66 nM
23 | CCOc1ccc(N(C)S(=O)(=O)c2cc(Cl)sc2C(=O)Nc2cc(Cl)cc(C(=O)OCCOCCOC)c2)cc1OC [CL3-12, 2-(2-Methoxyethoxy) ethyl 3-chloro-5-(5-chloro-3-(N-(4-ethoxy-3-methoxyphenyl)-N-methylsulfamoyl)thiophene-2-carboxamido)benzoate] | 420 nM | 138 nM
24 | CCOC(=O)c1cc(F)cc(NC(=O)c2sc(Cl)cc2S(=O)(=O)N(C)c2ccc(OCC)c(OC)c2)c1 [GR1-053, Ethyl 3-(5-chloro-3-(N-(4-ethoxy-3-methoxyphenyl)-N-methylsulfamoyl)thiophene-2-carboxamido)-5-fluorobenzoate] | 240 nM | 29 nM
25 | CCOc1ccc(N(C)S(=O)(=O)c2cc(Cl)sc2C(=O)Nc2cc(Cl)cc([N+](=O)[O-])c2)cc1OC [GR1-064, 5-Chloro-N-(3-chloro-5-nitrophenyl)-3-(N-(4-ethoxy-3-methoxyphenyl)-N-methylsulfamoyl)thiophene-2-carboxamide] | – | 578 nM
26 | CCOc1ccc(N(C)S(=O)(=O)c2cc(Cl)sc2C(=O)Nc2cc(Cl)cc(C(=O)Oc3ccc(C(C)=O)cc3)c2)cc1OC [GR1-067, 4-Acetylphenyl 3-chloro-5-(5-chloro-3-(N-(4-ethoxy-3-methoxyphenyl)-N-methylsulfamoyl)thiophene-2-carboxamido)benzoate] | – | 11 nM
27 | CCOc1ccc(N(C)S(=O)(=O)c2cc(Cl)sc2C(=O)Nc2cc(Cl)cc(C(=O)Oc3ccc(C(=O)c4ccccc4)cc3)c2)cc1OC [GR1-068, 4-Benzoylphenyl 3-chloro-5-(5-chloro-3-(N-(4-ethoxy-3-methoxyphenyl)-N-methylsulfamoyl)thiophene-2-carboxamido)benzoate] | – | 148 nM
28 | CCOc1ccc(N(C)S(=O)(=O)c2cc(Cl)sc2C(=O)Nc2cc(Cl)cc(C(=O)Oc3ccc(C(=O)c4ccc(O)cc4)cc3)c2)cc1OC [GR1-069, 4-(4-Hydroxybenzoyl)phenyl 3-chloro-5-(5-chloro-3-(N-(4-ethoxy-3-methoxyphenyl)-N-methylsulfamoyl)thiophene-2-carboxamido)benzoate] | – | 211 nM
29 | O=C(O)Cc1cccc(OCCCN(Cc2cccc(C(F)(F)F)c2Cl)CC(c2ccccc2)c2ccccc2)c1 [GW3965, reference compound] | – | 269 nM
30 | CCOc1ccc(N(C)S(=O)(=O)c2cc(Cl)sc2C(=O)Nc2cccc(C(=O)OC)c2)cc1 [KB7-123, Methyl 3-(5-chloro-3-(N-(4-ethoxyphenyl)-N-methylsulfamoyl)thiophene-2-carboxamido)benzoate] | 3300 nM | 1490 nM
